Reference: patent publication US20040176329A1, “Drugs for promoting the proliferation, differentiation and/or survival of glial cells containing cyclic phosphatidic acid” (priority 2001, published 2004)

How the values were obtained:
[1] = system: NIH-3T3; experiment: Formation of stress fiber in NIH-3T3 by addition of lysophospholipids; assay type: cell-based, mouse; details: 10 μM, 37° C., 30 minutes, subconfluent serum starvation state; control: no formation
Procedure: NIH-3T3, a mouse-derived fibroblast cell, was incubated in a Dulbecoo's Modified Eagle's Medium (DMEM) containing 10% fetal bovine serum (FBS; made by Moregate), and was used in the Experiment. 2.5 ×10^4 cells of the NIH-3T3 were inoculated in a petri dish (10 cm in diameter) paved with cover glasses of 22 mm in diameter, and the medium was replacing with a FBS-free medium after 24 hours, and the cells were incubated in a serum starvation state for 48 hours. 10 μM of the lysophospholipid was added, and the cells were incubated at 37° C. for 30 minutes for stimulation. Then, the cells were fixed in the Dalbecco's PBS containing 3.7% of paraformaldehyde and 0.1% of Triton X-100 at room temperature for 10 minutes. Thereafter, the cells were stained with 5 units/ml of rhodamine phalloidin (made by Funakoshi) at 37° C. for 1 hour. The cover glasses were washed with PBS thrice, and observation was carried out by a cofocus laser microscope TCS NT Control laser Scanning Microscope (made by Leica).
The product obtained by the A.sp.362-derived PLD reaction was studied with respect to its biochemical activity in order to confirm further that it was a compound which is identical to cPA. Namely, the activity of forming actin stress fiber in a fibroblast cell, one of the physiological activities of cPA, was studied. To NIH-3T3, i.e. a fibroblast cell line derived from mouse, in the subconfluent state in the serum starvation state, each 10 μM of LPA, a chemically synthesized PHYLPA, or cPA, i.e. the PLD reaction product was added at 37° C. for 30 minutes, and then actin stress fiber was stained with Rhodamine phalloidin, and observation was carried out.

[2] = system: primary cultured cerebral cortex cells (neurons); experiment: Oligodendrocyte primary culturing system with cPA or LPA added: cell appearance at early culturing stage; assay type: cell-based, rat; details: 5 μM per dish, FIG. 7; for aggregation of cells and bundling of neurons: early culturing stage (P-6th day)
Procedure: (§1) A mother rat of 18 days of pregnancy (E18Wistar Rat) was put into an anesthesia bottle containing an adequate amount of diethyl ether, and was anesthetized. The anesthetization was carried out for 3-5 minutes and stopped just before death. The mother rat was taken out of the anesthesia bottle, put on a suitable vat to lie on its back, and disinfected at the hypogastric area with ethanol. The rat was tom along a cut line about 3-4 cm upward from the tail joint by a scissors, and opened sideward with the scissors to separate the inner membrane from the skin. The skin was tom to expose the inner membrane, which was disinfected again with ethanol and tom to take out the uterus. The Y-shaped section of the uterus was cut while lifting the uterus, and the uterus was taken out. The taken out uterus was dipped in a cooled MEM^− in order to decrease the damage of the fetus brain.
The cerebral cortex was picked by a round pincette into a 35 mm dish to which 2 ml of dispase I (3 U/ml) was added, and was placed in a CO2 5% and humidity 95% incubator at 37° C. for 5 minutes. Then, Dnase (1 ml) was added thereto, and the dish was put in the incubator for 10 minutes again. The resultant solution was sufficiently pipetted while being careful not to make bubbles by a Pasteur pipette having the top end rounded by burning, so that the cells might be free from any bundles. The upper inlet of 50 ml tube was covered with a 70 μm mesh, and the mesh was then wetted with an adequate amount of MEM^−. The cell suspension thus obtained was poured into the tube through the mesh, and about 2 ml of MEM^− was poured to wash the mesh. The mesh was removed, and the resultant was messed up to 30-40 ml with MEM^−. The thus obtained sample was centrifuged at 1,000 rpm for 5 minutes, and the supernatant was removed. […]
(§2) The dish is washed twice with about 5 ml of PBS(−). […] Then, the cell number is counted by a cell counter. The supernatant is discarded, 20-30 ml of MEM^+ (B.S at the third passage) is added, and the resultant is pipetted, and the cell number is counted by a cell counter. […]

[3] = system: O-2A precursor cells; experiment: Oligodendrocyte primary culturing system with cPA or LPA added: O-2A precursor cells; assay type: cell-based, rat; details: 5 μM per dish; for number of O-2A precursor cells versus control: 6th day from first passage (1P-6th day)
Procedure: as §1
(§3) The cerebral cortex was picked by a round pincette into a 35 mm dish to which 2 ml of dispase I (3 U/ml) was added, and was placed in a CO2 5% and humidity 95% incubator at 37° C. for 5 minutes. Then, Dnase (1 ml) was added thereto, and the dish was put in the incubator for 10 minutes again. The resultant solution was sufficiently pipetted while being careful not to make bubbles by a Pasteur pipette having the top end rounded by burning, so that the cells might be free from any bundles. The upper inlet of 50 ml tube was covered with a 70 μm mesh, and the mesh was then wetted with an adequate amount of MEM^−. The cell suspension thus obtained was poured into the tube through the mesh, and about 2 ml of MEM^− was poured to wash the mesh. The mesh was removed, and the resultant was messed up to 30-40 ml with MEM^−. The thus obtained sample was centrifuged at 1,000 rpm for 5 minutes, and the supernatant was removed. The sample was messed up again to 30-40 ml with MEM^−, pipetted and centrifuged again at 1,000 rpm. The supernatant was removed, and the sample was supplied with 30 ml of MEM^−, and sufficiently pipetted, and then the cell number was countered by a cell counter. The cell suspension was inoculated in the PLL-coated dishes to be 1.0×10^7 cells/dish. The liquid was adjusted with MEM^+ to be a final volume of 10 ml/dish, and the cells were cultured in an incubator.
After disposal of the culture medium, the dish is washed twice with about 3 ml of PBS(−), and 10 ml of the fresh culture medium is poured. The medium change after the 17th day is carried out using B.S (serum-free medium). […]
as §2

[4] = system: astrocytes; experiment: Oligodendrocyte primary culturing system with cPA or LPA added: astrocytes; assay type: cell-based, rat; details: 5 μM per dish; for astrocytes by GFAP staining: 2P-6th day, fluorescence microscope, FIG. 10; for state and cell density of astrocytes: 6th day from second passage (2P-6th day), serum-free medium, FIG. 9; for remaining astrocytes: 6th day from third passage (3P-6th day), FIG. 11
Procedure: as §1, §3
(§4) After disposal of the culture medium, the dish is washed twice with about 3 ml of PBS(−), and 10 ml of the fresh culture medium is poured. The medium change after the 17th day is carried out using B.S (serum-free medium). Only at the first medium change, 200 μl of bFGF is added per dish. It is because the O-2A precursor cell is grown.
(§5) The dish is washed twice with about 5 ml of PBS(−). At the first passage, the dish is left stand for 2-3 minutes after supplying PBS(−) at the second time. 2-3 ml of 0.05% trypsin is added, and the dish is left stand in a 37° C. incubator for 8 minutes. After observation of the cell condition with a microscope, while keeping the trypsin as it was, the dish is supplied with MEM^+ at the same amount as the trypsin, and the cells is pipetted to stop the action of trypsin. The resultant was centrifuged at 1,000 rpm for 5 minutes. After removing the supernatant, 20-30 ml of MEM^− is added, and the resultant is pipetted again, centrifuged at 1,000 rpm for 5 minutes. Then, the cell number is counted by a cell counter. The supernatant is discarded, 20-30 ml of MEM^+ (B.S at the third passage) is added, and the resultant is pipetted, and the cell number is counted by a cell counter. Depending on respective passage stages, the cells are inoculated in respective dishes at the following number, and are cultured while left standing in an incubator.
(§6) From the stage of primary culturing, cPA or LPA was added to be an amount of 5 μM per dish every passage and medium change. […]

[5] = system: oligodendrocytes; experiment: Oligodendrocyte primary culturing system with cPA or LPA added: oligodendrocytes; assay type: cell-based, rat; details: 5 μM per dish; for oligodendrocyte cell number and dendrites: further 10 days after 3P-OL, FIG. 13
Procedure: as §1, §3, §4, §5, §6

[6] = 3P-6th day, fluorescence microscope, FIG. 12

Molecule	formation of actin stress fiber (Rhodamine phalloidin staining) [1]	cell appearance versus control ([2]; 6th day from primary culturing (P-6th day))	aggregation of cells and bundling of neurons [2]	number of O-2A precursor cells versus control ([3]; FIG. 8)	astrocytes by GFAP staining [4]	state and cell density of astrocytes [4]	remaining astrocytes [4]	differentiation of oligodendrocytes by 04 staining ([5]; 2P-6th day, fluorescence microscope, FIG. 10)	state of dendrites of oligodendrocytes ([5]; 3P-6th day, FIG. 11)	extent of MBP staining along the dendrite ([5]; 3P-6th day, FIG. 12)	MBP staining colour versus control [5, 6]	oligodendrocyte cell number and dendrites [5]	cell density ([3]; 1P-6th day, FIG. 8)	proliferation of O-2A precursor cells (conclusion) ([3]; early culturing stage)	survival of astrocytes (conclusion) ([4]; all culturing stages)	survival of astrocytes ([4]; further 10 days after 3P-OL, FIG. 13)
CCCCCC[C@@H]1C[C@@H]1CCCCCCCC(=O)OC[C@@H]1COP(=O)(O)O1 [PHYLPA]	formation of stress fibers was observed	–	–	–	–	–	–	–	–	–	–	–	–	–	–	–
lysophosphatidic acid [LPA]	formation of stress fibers was observed	no large difference in cell appearance	aggregate to form bundles of the neurons	increase in number more remarkably	the tissue of the astrocytes can be confirmed	lowered in cell density, though not so wrong as in the control	little astrocytes remains	elongated dendrites to form fine mesh-shape and differentiations is proceeded	dendrites of the oligodendrocytes suffer from aoptosis and begin to be ragged	even the tip of the dendrite is stained	develops color stronger	the cell number itself decreased and the dendrite fell ragged	–	–	–	–
CCCCCCCC/C=C\CCCCCCCC(=O)OCC1COP(=O)(O)O1 (stereo not shown) [cPA, 1-oleoyl cyclic phosphatidic acid]	formation of stress fibers was observed	–	causes cells to aggregate and neurons to be bundled	increase in number more remarkably	exists in a dense tissue	remained vigorous, and remained high in cell density	the astrocytes which was deformed to the narrow ones still remain	–	–	–	develops color stronger	many dendrites of oligodendrocytes around them which were not suffered from apoptosis	much higher than the others	promotes O-2A precursor cells to proliferate	promotes the survival of astrocytes through all their culturing stages	the astrocytes survived even at this stage
